Test: stability of the hydrochloride salt at elevated temperature
Type: physicochemical
Details: at temperatures above 30° C.

In the case of `CN1OC2CCCC(=O)C2C1Cc1ccccc1.Cl` (stereo not shown) [hydrochloride salt of BTG 1640], the stability at temperature is reported as “unstable”.

Reference: patent US20110039901A1, “PROCESS FOR PREPARING A CRYSTALLINE FORM COMPOUND OF 3-BENZYL-2-METHYL-2,3,3a,4,5,6,7,7a-OCTAHYDROBENZO[d]ISOXAZOL-4-ONE” (Abiogen Pharma S.P.A., priority 2008, published 2011)
